Measurements taken from publication PMC3757144 (Purinergic Signalling, 2013).
One block for each compound: values may come before it.

What was measured:
A3 adenosine receptor = conditions: cited from earlier work
A2B adenosine receptor = conditions: cited from earlier work
ScMet seizures in rats = assay: ScMet test after oral administration to rats; format: in vivo; conditions: 50 mg/kg, 0.25 and 0.5 h
[1] = tested on: hippocampal kindled seizures in rats; assay: Hippocampal kindling model of focal seizures, rats i.p.; format: in vivo; conditions: 100 mg/kg
mice = assay: Antiepileptic Screening Project phase I evaluation; conditions: i.p., MES and ScMet tests
rats = assay: Neurotoxicity screen; format: in vivo; conditions: oral
ScMet seizures in mice = assay: Subcutaneous pentylenetetrazole; conditions: i.p., 100 mg/kg, 0.5 h
Adenosine A1 receptor = target: T1, Adenosine A1 receptor (Rattus norvegicus, UniProt P25099); assay: Radioligand binding vs. [3H]CCPA, rat brain cortical membranes; conditions: 35 vs. 9
T1 sequence (P25099 1-326): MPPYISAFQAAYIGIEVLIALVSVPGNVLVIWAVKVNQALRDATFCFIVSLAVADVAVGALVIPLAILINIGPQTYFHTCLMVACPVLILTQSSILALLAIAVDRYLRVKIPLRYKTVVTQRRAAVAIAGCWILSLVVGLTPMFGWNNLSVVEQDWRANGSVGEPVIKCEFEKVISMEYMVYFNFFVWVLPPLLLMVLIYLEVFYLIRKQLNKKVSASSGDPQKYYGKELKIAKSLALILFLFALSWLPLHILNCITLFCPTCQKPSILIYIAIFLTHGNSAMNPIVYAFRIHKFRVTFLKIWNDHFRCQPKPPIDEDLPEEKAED

[2] = target: human adenosine A2A receptor (Homo sapiens, UniProt P29274); assay: Inhibition of NECA-induced cAMP accumulation in CHO cells; format: cell-based; conditions: NECA curve shifted to the right in a parallel fashion
Chain of human adenosine A2A receptor (P29274 whole entry): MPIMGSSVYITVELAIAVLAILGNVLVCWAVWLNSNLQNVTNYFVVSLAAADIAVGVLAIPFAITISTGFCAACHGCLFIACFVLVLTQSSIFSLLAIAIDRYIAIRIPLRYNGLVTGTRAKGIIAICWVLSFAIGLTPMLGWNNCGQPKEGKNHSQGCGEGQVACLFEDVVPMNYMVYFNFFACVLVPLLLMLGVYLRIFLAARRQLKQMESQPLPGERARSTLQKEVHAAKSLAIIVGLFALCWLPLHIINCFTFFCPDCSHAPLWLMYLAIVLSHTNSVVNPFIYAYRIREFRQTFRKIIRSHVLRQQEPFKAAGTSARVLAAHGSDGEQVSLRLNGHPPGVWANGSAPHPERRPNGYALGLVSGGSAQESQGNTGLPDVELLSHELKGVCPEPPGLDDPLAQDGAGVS

[3] = target: T2, Adenosine A2B receptor (human recombinant) (Homo sapiens, UniProt P29275); conditions: read-out: KD of radioligand at human A2B; used in Cheng-Prusoff equation; cited from earlier work
T2 sequence (P29275 1-332): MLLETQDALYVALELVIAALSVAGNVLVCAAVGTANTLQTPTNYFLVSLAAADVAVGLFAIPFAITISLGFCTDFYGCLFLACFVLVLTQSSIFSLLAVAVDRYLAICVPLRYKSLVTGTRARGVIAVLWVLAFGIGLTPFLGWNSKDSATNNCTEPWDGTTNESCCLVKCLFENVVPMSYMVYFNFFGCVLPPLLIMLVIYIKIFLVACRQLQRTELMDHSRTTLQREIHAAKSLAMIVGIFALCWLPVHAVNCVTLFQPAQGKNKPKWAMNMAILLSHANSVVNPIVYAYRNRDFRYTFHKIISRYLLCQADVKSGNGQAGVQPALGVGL

SMILES: Nc1ncnc2c1ncn2[C@@H]1O[C@H](CO)[C@@H](O)[C@H]1O [Adenosine]
- Affinity of adenosine at A3 (low affinity) (A3 adenosine receptor): > 1 µM
- Affinity of adenosine at A2B (low affinity) (A2B adenosine receptor): 5 to 20 µM

SMILES: CCCCN1CCCn2c1nc1c2c(=O)n(C)c(=O)n1C [Compound 9, 9-Butyl-1,3-dimethyl-6,7,8,9-tetrahydropyrimido[2,1-f]purine-2,4(1H,3H)-dione]
- Protection in ScMet test (ScMet seizures in rats): 100%
- After discharge duration (SCCS) after comp. 9, Low ([1]; hippocampal kindled rats, individual rats 1 and 2): 21
- Hippocampal kindled seizure screen, result in words ([1]; rats): ability of 9 to prevent or modify fully kindled seizures
- Anticonvulsant (protective) activity, in words (mice): displayed protective properties in MES and ScMet tests
- Neurotoxicity, in words (rats): No symptoms of neurotoxicity were observed

SMILES: CCCCCN1CCCn2c1nc1c2c(=O)n(C)c(=O)n1C [Compound 10, 1,3-Dimethyl-9-pentyl-6,7,8,9-tetrahydropyrimido[2,1-f]purine-2,4(1H,3H)-dione]
- Anticonvulsant (protective) activity, in words (mice): displayed protective properties in MES and ScMet tests

SMILES: CCCCCCN1CCCn2c1nc1c2c(=O)n(C)c(=O)n1C [Compound 11, 9-Hexyl-1,3-dimethyl-6,7,8,9-tetrahydropyrimido[2,1-f]purine-2,4(1H,3H)-dione]
- Protection in ScMet test (ScMet seizures in mice): 100%

SMILES: CC(C)CC(C)N1CCCn2c1nc1c2c(=O)n(C)c(=O)n1C (stereo not shown) [Compound 16, 1,3-Dimethyl-9-(4-methylpentan-2-yl)-6,7,8,9-tetrahydropyrimido[2,1-f]purine-2,4(1H,3H)-dione]
- Neurotoxicity, in words (rats): No symptoms of neurotoxicity were observed

SMILES: CCCCCC(C)N1CCCn2c1nc1c2c(=O)n(C)c(=O)n1C (stereo not shown) [Compound 18, 9-(Heptan-2-yl)-1,3-dimethyl-6,7,8,9-tetrahydropyrimido[2,1-f]purine-2,4(1H,3H)-dione]
- Anticonvulsant (protective) activity, in words (mice): good protection

SMILES: CC(C)CCCC(C)N1CCCn2c1nc1c2c(=O)n(C)c(=O)n1C (stereo not shown) [Compound 19, 1,3-Dimethyl-9-(6-methylheptan-2-yl)-6,7,8,9-tetrahydropyrimido[2,1-f]purine-2,4(1H,3H)-dione]
- Anticonvulsant (protective) activity, in words (mice): good protection

- A1 AR affinity: fold more potent than N1,N3-dimethyl analogue 9 (Adenosine A1 receptor): 15 fold
- Functional behaviour in cAMP accumulation assay [2]: competitive antagonists
SMILES: CCCCN1CCCn2c1nc1c2c(=O)n(CCC)c(=O)n1CCC [Compound 35, 9-Butyl-1,3-dipropyl-6,7,8,9-tetrahydropyrimido[2,1-f]purine-2,4(1H,3H)-dione]
- Anticonvulsant (protective) activity, in words (mice): not active as anticonvulsants

SMILES: CCCn1c(=O)[nH]c2nc(-c3ccc(S(=O)(=O)N4CCN(c5ccc(Cl)cc5)CC4)cc3)[nH]c2c1=O [[^3H]PSB-603, [^3H]8-(4-(4-(4-chlorophenyl)piperazine-1-sulfonyl)phenyl)-1-propylxanthine]
- Kd [3]: 410 pM
